Data as given in ChEMBL document CHEMBL1250513, “(R,S)-anti-1-amino-2-[18F]fluorocyclopentyl-1-carboxylic acid: synthesis from racemic 2-benzyloxycyclopentanone and biological evaluation for brain tumor imaging with positron emission tomography” (J Med Chem, 2010).

What was measured:
Brain [1] = test: Biodistribution in rat 9L tumor bearing fisher rat brain at 40 to 50 uCi, iv after 15 mins; assay type: ADME, organism-based; details: in vivo, 0.25 h
Lung [2] = test: Biodistribution in rat 9L tumor bearing fisher rat lung at 40 to 50 uCi, iv after 60 mins; assay type: ADME, organism-based; details: in vivo, 1 h
Brain [3] = test: Biodistribution in rat 9L tumor bearing fisher rat brain at 40 to 50 uCi, iv after 60 mins; assay type: ADME, organism-based; details: in vivo, 1 h
Blood [4] = test: Biodistribution in rat 9L tumor bearing fisher rat blood at 40 to 50 uCi, iv after 30 mins; assay type: ADME, organism-based; details: in vivo, 0.5 h
Testes [5] = test: Biodistribution in rat 9L tumor bearing fisher rat testes at 40 to 50 uCi, iv after 120 mins; assay type: ADME, organism-based, Testis; details: in vivo, 2 h
Testes [6] = test: Biodistribution in rat 9L tumor bearing fisher rat testes at 40 to 50 uCi, iv after 30 mins; assay type: ADME, organism-based, Testis; details: in vivo, 0.5 h
[7] = Biodistribution in rat 9L tumor bearing fisher rat tumor at 40 to 50 uCi, iv after 15 mins; assay type: ADME, organism-based, Neoplasm; details: in vivo, 0.25 h
Muscle tissue [8] = test: Biodistribution in rat 9L tumor bearing fisher rat muscle at 40 to 50 uCi, iv after 30 mins; assay type: ADME, organism-based; details: in vivo, 0.5 h
[9] = Ratio of drug uptake in tumor to brain in rat 9L tumor bearing fisher rat […] at 40 to 50 uCi, iv after 60 mins; assay type: ADME, organism-based; details: in vivo, 1 h
Spleen [10] = test: Biodistribution in rat 9L tumor bearing fisher rat spleen at 40 to 50 uCi, iv after 30 mins; assay type: ADME, organism-based; details: in vivo, 0.5 h
Muscle tissue [11] = test: Biodistribution in rat 9L tumor bearing fisher rat muscle at 40 to 50 uCi, iv after 120 mins; assay type: ADME, organism-based; details: in vivo, 2 h
Spleen [12] = test: Biodistribution in rat 9L tumor bearing fisher rat spleen at 40 to 50 uCi, iv after 120 mins; assay type: ADME, organism-based; details: in vivo, 2 h
Bone [13] = test: Biodistribution in rat 9L tumor bearing fisher rat bone at 40 to 50 uCi, iv after 120 mins; assay type: ADME, organism-based, Bone element; details: in vivo, 2 h
Muscle tissue [14] = test: Biodistribution in rat 9L tumor bearing fisher rat muscle at 40 to 50 uCi, iv after 60 mins; assay type: ADME, organism-based; details: in vivo, 1 h
Spleen [15] = test: Biodistribution in rat 9L tumor bearing fisher rat spleen at 40 to 50 uCi, iv after 60 mins; assay type: ADME, organism-based; details: in vivo, 1 h
Pancreas [16] = test: Biodistribution in rat 9L tumor bearing fisher rat pancreas at 40 to 50 uCi, iv after 60 mins; assay type: ADME, organism-based; details: in vivo, 1 h
Testes [17] = test: Biodistribution in rat 9L tumor bearing fisher rat testes at 40 to 50 uCi, iv after 60 mins; assay type: ADME, organism-based, Testis; details: in vivo, 1 h
Bone [18] = test: Biodistribution in rat 9L tumor bearing fisher rat bone at 40 to 50 uCi, iv after 15 mins; assay type: ADME, organism-based, Bone element; details: in vivo, 0.25 h
Bone [19] = test: Biodistribution in rat 9L tumor bearing fisher rat bone at 40 to 50 uCi, iv after 60 mins; assay type: ADME, organism-based, Bone element; details: in vivo, 1 h
[20] = Biodistribution in rat 9L tumor bearing fisher rat tumor at 40 to 50 uCi, iv after 120 mins; assay type: ADME, organism-based, Neoplasm; details: in vivo, 2 h
Heart [21] = test: Biodistribution in rat 9L tumor bearing fisher rat heart at 40 to 50 uCi, iv after 120 mins; assay type: ADME, organism-based; details: in vivo, 2 h
[22] = Biodistribution in rat 9L tumor bearing fisher rat tumor at 40 to 50 uCi, iv after 60 mins; assay type: ADME, organism-based, Neoplasm; details: in vivo, 1 h
Pancreas [23] = test: Biodistribution in rat 9L tumor bearing fisher rat pancreas at 40 to 50 uCi, iv after 15 mins; assay type: ADME, organism-based; details: in vivo, 0.25 h
Liver [24] = test: Biodistribution in rat 9L tumor bearing fisher rat liver at 40 to 50 uCi, iv after 120 mins; assay type: ADME, organism-based; details: in vivo, 2 h
Blood [25] = test: Biodistribution in rat 9L tumor bearing fisher rat blood at 40 to 50 uCi, iv after 15 mins; assay type: ADME, organism-based; details: in vivo, 0.25 h
Lung [26] = test: Biodistribution in rat 9L tumor bearing fisher rat lung at 40 to 50 uCi, iv after 15 mins; assay type: ADME, organism-based; details: in vivo, 0.25 h
Spleen [27] = test: Biodistribution in rat 9L tumor bearing fisher rat spleen at 40 to 50 uCi, iv after 15 mins; assay type: ADME, organism-based; details: in vivo, 0.25 h
Testes [28] = test: Biodistribution in rat 9L tumor bearing fisher rat testes at 40 to 50 uCi, iv after 15 mins; assay type: ADME, organism-based, Testis; details: in vivo, 0.25 h
Brain [29] = test: Biodistribution in rat 9L tumor bearing fisher rat brain at 40 to 50 uCi, iv after 30 mins; assay type: ADME, organism-based; details: in vivo, 0.5 h
Heart [30] = test: Biodistribution in rat 9L tumor bearing fisher rat heart at 40 to 50 uCi, iv after 15 mins; assay type: ADME, organism-based; details: in vivo, 0.25 h
Kidney [31] = test: Biodistribution in rat 9L tumor bearing fisher rat kidney at 40 to 50 uCi, iv after 120 mins; assay type: ADME, organism-based; details: in vivo, 2 h
Blood [32] = test: Biodistribution in rat 9L tumor bearing fisher rat blood at 40 to 50 uCi, iv after 60 mins; assay type: ADME, organism-based; details: in vivo, 1 h
Liver [33] = test: Biodistribution in rat 9L tumor bearing fisher rat liver at 40 to 50 uCi, iv after 15 mins; assay type: ADME, organism-based; details: in vivo, 0.25 h
Blood [34] = test: Biodistribution in rat 9L tumor bearing fisher rat blood at 40 to 50 uCi, iv after 120 mins; assay type: ADME, organism-based; details: in vivo, 2 h
Pancreas [35] = test: Biodistribution in rat 9L tumor bearing fisher rat pancreas at 40 to 50 uCi, iv after 30 mins; assay type: ADME, organism-based; details: in vivo, 0.5 h
Muscle tissue [36] = test: Biodistribution in rat 9L tumor bearing fisher rat muscle at 40 to 50 uCi, iv after 15 mins; assay type: ADME, organism-based; details: in vivo, 0.25 h
Liver [37] = test: Biodistribution in rat 9L tumor bearing fisher rat liver at 40 to 50 uCi, iv after 60 mins; assay type: ADME, organism-based; details: in vivo, 1 h
Lung [38] = test: Biodistribution in rat 9L tumor bearing fisher rat lung at 40 to 50 uCi, iv after 120 mins; assay type: ADME, organism-based; details: in vivo, 2 h
Bone [39] = test: Biodistribution in rat 9L tumor bearing fisher rat bone at 40 to 50 uCi, iv after 30 mins; assay type: ADME, organism-based, Bone element; details: in vivo, 0.5 h
[40] = Ratio of drug uptake in tumor to brain in rat 9L tumor bearing fisher rat […] at 40 to 50 uCi, iv after 15 mins; assay type: ADME, organism-based; details: in vivo, 0.25 h
Brain [41] = test: Biodistribution in rat 9L tumor bearing fisher rat brain at 40 to 50 uCi, iv after 120 mins; assay type: ADME, organism-based; details: in vivo, 2 h
Heart [42] = test: Biodistribution in rat 9L tumor bearing fisher rat heart at 40 to 50 uCi, iv after 60 mins; assay type: ADME, organism-based; details: in vivo, 1 h
Kidney [43] = test: Biodistribution in rat 9L tumor bearing fisher rat kidney at 40 to 50 uCi, iv after 15 mins; assay type: ADME, organism-based; details: in vivo, 0.25 h
[44] = Ratio of drug uptake in tumor to brain in rat 9L tumor bearing fisher rat […] at 40 to 50 uCi, iv after 120 mins; assay type: ADME, organism-based; details: in vivo, 2 h
Kidney [45] = test: Biodistribution in rat 9L tumor bearing fisher rat kidney at 40 to 50 uCi, iv after 60 mins; assay type: ADME, organism-based; details: in vivo, 1 h
Pancreas [46] = test: Biodistribution in rat 9L tumor bearing fisher rat pancreas at 40 to 50 uCi, iv after 120 mins; assay type: ADME, organism-based; details: in vivo, 2 h
Heart [47] = test: Biodistribution in rat 9L tumor bearing fisher rat heart at 40 to 50 uCi, iv after 30 mins; assay type: ADME, organism-based; details: in vivo, 0.5 h
Liver [48] = test: Biodistribution in rat 9L tumor bearing fisher rat liver at 40 to 50 uCi, iv after 30 mins; assay type: ADME, organism-based; details: in vivo, 0.5 h
Lung [49] = test: Biodistribution in rat 9L tumor bearing fisher rat lung at 40 to 50 uCi, iv after 30 mins; assay type: ADME, organism-based; details: in vivo, 0.5 h
[50] = Ratio of drug uptake in tumor to brain in rat 9L tumor bearing fisher rat […] at 40 to 50 uCi, iv after 30 mins; assay type: ADME, organism-based; details: in vivo, 0.5 h
[51] = Biodistribution in rat 9L tumor bearing fisher rat tumor at 40 to 50 uCi, iv after 30 mins; assay type: ADME, organism-based, Neoplasm; details: in vivo, 0.5 h
Kidney [52] = test: Biodistribution in rat 9L tumor bearing fisher rat kidney at 40 to 50 uCi, iv after 30 mins; assay type: ADME, organism-based; details: in vivo, 0.5 h

In the case of `N[C@@]1(C(=O)O)CCC[C@@H]1[18F]` (racemic), the Drug uptake (Brain [1]) is reported as 0.12 % ID/g, the Drug uptake (Lung [2]) is reported as 0.8 % ID/g and the Drug uptake (Brain [3]) is reported as 0.1 % ID/g. The Drug uptake (Blood [4]) was 0.29 % ID/g, the Drug uptake (Testes [5]) was 0.13 % ID/g and the Drug uptake (Testes [6]) was 0.18 % ID/g. The Drug uptake [7] was 0.57 % ID/g, the Drug uptake (Muscle tissue [8]) was 0.28 % ID/g and the Ratio [9] was 12. For the same molecule, the Drug uptake (Spleen [10]) was 0.48 % ID/g, the Drug uptake (Muscle tissue [11]) was 0.17 % ID/g and the Drug uptake (Spleen [12]) was 0.18 % ID/g. For the same molecule, the Drug uptake (Bone [13]) was 0.13 % ID/g, the Drug uptake (Muscle tissue [14]) was 0.24 % ID/g and the Drug uptake (Spleen [15]) was 0.3 % ID/g. It also gave a Drug uptake (Pancreas [16]) of 2.65 % ID/g, a Drug uptake (Testes [17]) of 0.14 % ID/g and a Drug uptake (Bone [18]) of 0.27 % ID/g. For the same molecule, the Drug uptake (Bone [19]) was 0.14 % ID/g, the Drug uptake [20] was 0.98 % ID/g and the Drug uptake (Heart [21]) was 0.28 % ID/g. It also gave a Drug uptake [22] of 1.24 % ID/g, a Drug uptake (Pancreas [23]) of 2.77 % ID/g and a Drug uptake (Liver [24]) of 0.4 % ID/g. The Drug uptake (Blood [25]) was 0.48 % ID/g, the Drug uptake (Lung [26]) was 1.53 % ID/g and the Drug uptake (Spleen [27]) was 0.64 % ID/g. For the same molecule, the Drug uptake (Testes [28]) was 0.23 % ID/g, the Drug uptake (Brain [29]) was 0.13 % ID/g and the Drug uptake (Heart [30]) was 0.56 % ID/g. It also gave a Drug uptake (Kidney [31]) of 0.89 % ID/g, a Drug uptake (Blood [32]) of 0.21 % ID/g and a Drug uptake (Liver [33]) of 0.93 % ID/g. The Drug uptake (Blood [34]) was 0.14 % ID/g, the Drug uptake (Pancreas [35]) was 2.91 % ID/g and the Drug uptake (Muscle tissue [36]) was 0.28 % ID/g. The Drug uptake (Liver [37]) was 0.41 % ID/g, the Drug uptake (Lung [38]) was 0.78 % ID/g and the Drug uptake (Bone [39]) was 0.17 % ID/g. It also gave a Ratio [40] of 5, a Drug uptake (Brain [41]) of 0.1 % ID/g and a Drug uptake (Heart [42]) of 0.3 % ID/g. The Drug uptake (Kidney [43]) was 4.87 % ID/g, the Ratio [44] was 10 and the Drug uptake (Kidney [45]) was 2 % ID/g. For the same molecule, the Drug uptake (Pancreas [46]) was 1.84 % ID/g, the Drug uptake (Heart [47]) was 0.44 % ID/g and the Drug uptake (Liver [48]) was 0.63 % ID/g. The Drug uptake (Lung [49]) was 1.13 % ID/g, the Ratio [50] was 13 and the Drug uptake [51] was 1.68 % ID/g. The Drug uptake (Kidney [52]) was 3.44 % ID/g.
